# According to patent US7718385B2, “Bioactivation of alkylating agents for cancer treatment” (priority 2003, dated 2010):
# Legend:
# [1] = Nonenzymatic reactivity of the 8,9-double bond with GSH (absorbance 330 nm); assay type: physicochemical; conditions: 3.25 mM GSH, pH 7.4, 1 h, 30° C.
# Description: Reaction of the 8,9-double bond with GSH was followed spectrophotometrically at 330 nm.
# The sulfhydryl group of GSH is a potent nucleophile that rapidly reacts with most electrophilic α,β-unsaturated carbonyl groups via a Michael-addition mechanism.
# UO-31 = conditions: UO-31, Renal; cited from earlier work
# HL-60(TB) = conditions: cited from earlier work
# RPMI-8226 = conditions: RPMI-8226, Leukemia, cited from earlier work
# A549/ATCC = conditions: cited from earlier work
# NCI-H226 = conditions: NCI-H226, Non-Small Cell Lung, cited from earlier work
# NCI-H322M = conditions: cited from earlier work
# NCI-H522 = conditions: NCI-H522, Non-Small Cell Lung, cited from earlier work
# HCC-2998 = conditions: HCC-2998, Colon, cited from earlier work
# HCT-15 = conditions: HCT-15, Colon, cited from earlier work
# SF-268 = conditions: SF-268, Central Nervous System, cited from earlier work
# SF-295 = conditions: SF-295, Central Nervous System, cited from earlier work
# U251 = conditions: U251, Central Nervous System, cited from earlier work
# SK-MEL-2 = conditions: SK-MEL-2, Melanoma, cited from earlier work
# SK-MEL-5 = conditions: SK-MEL-5, Melanoma, cited from earlier work
# OVCAR-5 = conditions: OVCAR-5, Ovarian; cited from earlier work
# 786-0 = conditions: 786-0, Renal, cited from earlier work
# MCF7 = conditions: MCF7, Breast, cited from earlier work
# NCI/ADR-RES = conditions: cited from earlier work
# MDA-MB 231/ATCC = conditions: cited from earlier work
# T-47D = conditions: cited from earlier work
# [2] = read-out: LC50, Non-Small Cell Lung
smiles,measurement,setting,value
"CC1=C(CO)C2=C(C)C3(CC3)[C@@](C)(O)C(=O)C2=C1 [Irofulven, 6-hydroxymethylacylfulvene]","reactivity of the α,β-unsaturated ketone with GSH",[1],relatively resistant to nucleophilic attack
same,GI50,UO-31,200 nM
same,TGI,UO-31,5.01E−07
same,log(GI50),UO-31,−6.7
same,log(TGI),UO-31,−6.3
same,GI50,HL-60(TB); Leukemia,251 nM
same,TGI,HL-60(TB); Leukemia,2.00E−06
same,log(GI50),HL-60(TB); Leukemia,−6.6
same,log(TGI),HL-60(TB); Leukemia,−5.7
same,CC50,"HL-60(TB); read-out: LC50, Leukemia",≥ 100000 nM
same,GI50,RPMI-8226,31600 nM
same,TGI,RPMI-8226,7.94E−05
same,log(GI50),RPMI-8226,−4.5
same,log(TGI),RPMI-8226,−4.1
same,CC50,RPMI-8226; read-out: LC50,≥ 100000 nM
same,GI50,A549/ATCC; Non-Small Cell Lung,126 nM
same,TGI,A549/ATCC; Non-Small Cell Lung,1.58E−06
same,log(GI50),A549/ATCC; Non-Small Cell Lung,−6.9
same,log(TGI),A549/ATCC; Non-Small Cell Lung,−5.8
same,CC50,A549/ATCC; [2],≥ 100000 nM
same,GI50,NCI-H226,200 nM
same,TGI,NCI-H226,5.01E−07
same,log(GI50),NCI-H226,−6.7
same,log(LC50),NCI-H226,−5.2
same,log(TGI),NCI-H226,−6.3
same,CC50,NCI-H226; read-out: LC50,6310 nM
same,GI50,NCI-H322M; Non-Small Cell Lung,251 nM
same,TGI,NCI-H322M; Non-Small Cell Lung,6.31E−07
same,log(GI50),NCI-H322M; Non-Small Cell Lung,−6.6
same,log(LC50),NCI-H322M; Non-Small Cell Lung,−4.9
same,log(TGI),NCI-H322M; Non-Small Cell Lung,−6.2
same,CC50,NCI-H322M; [2],12600 nM
same,GI50,NCI-H522,158 nM
same,TGI,NCI-H522,6.31E−07
same,log(GI50),NCI-H522,−6.8
same,log(LC50),NCI-H522,−5.1
same,log(TGI),NCI-H522,−6.2
same,CC50,NCI-H522; read-out: LC50,7940 nM
same,GI50,HCC-2998,158 nM
same,TGI,HCC-2998,3.16E−07
same,log(GI50),HCC-2998,−6.8
same,log(LC50),HCC-2998,−6.2
same,log(TGI),HCC-2998,−6.5
same,CC50,HCC-2998; read-out: LC50,631 nM
same,GI50,HCT-15,316 nM
same,TGI,HCT-15,5.01E−06
same,log(GI50),HCT-15,−6.5
same,log(TGI),HCT-15,−5.3
same,CC50,HCT-15; read-out: LC50,≥ 100000 nM
same,GI50,SF-268,251 nM
same,TGI,SF-268,2.51E−06
same,log(GI50),SF-268,−6.6
same,log(TGI),SF-268,−5.6
same,CC50,SF-268; read-out: LC50,≥ 100000 nM
same,GI50,SF-295,316 nM
same,TGI,SF-295,6.31E−06
same,log(GI50),SF-295,−6.5
same,log(LC50),SF-295,−5
same,log(TGI),SF-295,−5.2
same,CC50,SF-295; read-out: LC50,10000 nM
same,GI50,U251,316 nM
same,TGI,U251,6.31E−06
same,log(GI50),U251,−6.5
same,log(LC50),U251,−4.3
same,log(TGI),U251,−5.2
same,CC50,U251; read-out: LC50,50100 nM
same,GI50,SK-MEL-2,200 nM
same,TGI,SK-MEL-2,3.98E−07
same,log(GI50),SK-MEL-2,−6.7
same,log(LC50),SK-MEL-2,−6.2
same,log(TGI),SK-MEL-2,−6.4
same,CC50,SK-MEL-2; read-out: LC50,631 nM
same,GI50,SK-MEL-5,158 nM
same,TGI,SK-MEL-5,3.98E−07
same,log(GI50),SK-MEL-5,−6.8
same,log(LC50),SK-MEL-5,−6
same,log(TGI),SK-MEL-5,−6.4
same,CC50,SK-MEL-5; read-out: LC50,1000 nM
same,GI50,OVCAR-5,158 nM
same,TGI,OVCAR-5,5.01E−07
same,log(GI50),OVCAR-5,−6.8
same,log(LC50),OVCAR-5,−4.3
same,log(TGI),OVCAR-5,−6.3
same,GI50,786-0,200 nM
same,TGI,786-0,5.01E−07
same,log(GI50),786-0,−6.7
same,log(LC50),786-0,−5.7
same,log(TGI),786-0,−6.3
same,CC50,786-0; read-out: LC50,2000 nM
same,GI50,MCF7,251 nM
same,TGI,MCF7,2.00E−06
same,log(GI50),MCF7,−6.6
same,log(TGI),MCF7,−5.7
same,CC50,MCF7; read-out: LC50,≥ 100000 nM
same,GI50,NCI/ADR-RES; Breast,251 nM
same,TGI,NCI/ADR-RES; Breast,7.94E−07
same,log(GI50),NCI/ADR-RES; Breast,−6.6
same,log(LC50),NCI/ADR-RES; Breast,−5.3
same,log(TGI),NCI/ADR-RES; Breast,−6.1
same,CC50,"NCI/ADR-RES; read-out: LC50, Breast",5010 nM
same,GI50,MDA-MB 231/ATCC; Breast,316 nM
same,TGI,MDA-MB 231/ATCC; Breast,1.26E−06
same,log(GI50),MDA-MB 231/ATCC; Breast,−6.5
same,log(LC50),MDA-MB 231/ATCC; Breast,−4.1
same,log(TGI),MDA-MB 231/ATCC; Breast,−5.9
same,CC50,"MDA-MB 231/ATCC; read-out: LC50, Breast",79400 nM
same,GI50,T-47D; Breast,200 nM
same,TGI,T-47D; Breast,2.51E−06
same,log(GI50),T-47D; Breast,−6.7
same,log(TGI),T-47D; Breast,−5.6
same,CC50,"T-47D; read-out: LC50, Breast",≥ 100000 nM
